Format in all cases: in vivo
One assay relates to corn (Zea mays). The experiment in a line: Test A postemergence. The conditions noted are these: Zea mays, post-emergence, 240 h, 125 g ai/ha, postemergence; visual injury after approximately 10 d; 0 to 100 scale (0 no effect, 100 complete control). Put shortly: (§1)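 In a loam soil and sand blend, planted seeds got a preemergence directed soil spray, and young plants at the one- to two-leaf stage, 2–10 cm high, got a postemergence application; ~10 d greenhouse hold; injury rated visually, 0 = none, 100 = complete control.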

Assay [1] deals with pigweed (Amaranthus retroflexus). The experiment in a line: Test A postemergence. To be noted: Amaranthus retroflexus, post-emergence, 240 h, 125 g ai/ha, postemergence; visual injury after approximately 10 d; 0 to 100 scale (0 no effect, 100 complete control); read-out: Plant response rating, Pigweed. Put shortly: as §1
In assay [2] the test system is giant foxtail (Setaria faberii). The experiment in a line: Test A postemergence. The conditions noted are these: Setaria faberi, post-emergence, 240 h, 125 g ai/ha, postemergence; visual injury after approximately 10 d; 0 to 100 scale (0 no effect, 100 complete control); read-out: Plant response rating, Foxtail, Giant. The method in brief:
as §1

Assay [3] deals with barnyardgrass (Echinochloa crus-galli). The experiment in a line: Test A postemergence. To be noted: Echinochloa crus-galli, post-emergence, 240 h, 125 g ai/ha, postemergence; visual injury after approximately 10 d; 0 to 100 scale (0 no effect, 100 complete control); read-out: Plant response rating, Barnyardgrass. The method in brief:
as §1

Assay [4] deals with wheat (Triticum aestivum). The experiment in a line: Test A postemergence. The conditions noted are these: Triticum aestivum, post-emergence, 240 h, 125 g ai/ha, postemergence; visual injury after approximately 10 d; 0 to 100 scale (0 no effect, 100 complete control); read-out: Plant response rating, Wheat. Put shortly: as §1
The test system of assay [5] is ryegrass, Italian (Italian ryegrass, Lolium multiflorum). The experiment in a line: Test A postemergence. To be noted: Lolium multiflorum, post-emergence, 240 h, 125 g ai/ha, postemergence; visual injury after approximately 10 d; 0 to 100 scale (0 no effect, 100 complete control); read-out: Plant response rating, Ryegrass, Italian. Put shortly: as §1
The test system of assay [6] is Galium (catchweed bedstraw, Galium aparine). Put plainly: Test A postemergence. To be noted: Galium, post-emergence, 240 h, 125 g ai/ha, postemergence; visual injury after approximately 10 d; 0 to 100 scale (0 no effect, 100 complete control); read-out: Plant response rating, Galium. The method in brief:
as §1

For assay [7], the system named is Kochia (Kochia scoparia). The experiment in a line: Test A postemergence. The conditions noted are these: Bassia scoparia, post-emergence, 240 h, 125 g ai/ha, postemergence; visual injury after approximately 10 d; 0 to 100 scale (0 no effect, 100 complete control); read-out: Plant response rating, Kochia. Put shortly: as §1
The subject of assay [8] is ragweed (common ragweed, Ambrosia elatior). The experiment in a line: Test A postemergence. To be noted: Ambrosia artemisiifolia, post-emergence, 240 h, 125 g ai/ha, postemergence; visual injury after approximately 10 d; 0 to 100 scale (0 no effect, 100 complete control); read-out: Plant response rating, Ragweed. The method in brief:
as §1

Assay [9] relates to pigweed (Amaranthus retroflexus). Put plainly: Test A preemergence. The conditions noted are these: Amaranthus retroflexus, pre-emergence, 240 h, preemergence, read-out: Plant response rating, Pigweed.
The test system of assay [10] is giant foxtail (Setaria faberii). The experiment in a line: Test A preemergence. To be noted: Setaria faberi, pre-emergence, 240 h, preemergence, read-out: Plant response rating, Foxtail, Giant. The method in brief:
as §1

The subject of assay [11] is barnyardgrass (Echinochloa crus-galli). The experiment in a line: Test A preemergence. The conditions noted are these: Echinochloa crus-galli, pre-emergence, 240 h, preemergence, read-out: Plant response rating, Barnyardgrass. The method in brief: as §1
In assay [12] the test system is ryegrass, Italian (Italian ryegrass, Lolium multiflorum). The experiment in a line: Test A preemergence. To be noted: Lolium multiflorum, pre-emergence, 240 h, preemergence, read-out: Plant response rating, Ryegrass, Italian. The method in brief:
as §1

The test system of assay [13] is Kochia (Kochia scoparia). The experiment in a line: Test A preemergence. The conditions noted are these: Bassia scoparia, pre-emergence, 240 h, preemergence, read-out: Plant response rating, Kochia. Put shortly:
as §1

Assay [14] concerns ragweed (common ragweed, Ambrosia elatior). The experiment in a line: Test A preemergence. The conditions noted are these: Ambrosia artemisiifolia, pre-emergence, 240 h, preemergence, read-out: Plant response rating, Ragweed. The method in brief: as §1
Setting [15] is: 125 g ai/ha, visual rating after approx. 10 d, 0 to 100 scale where 0 is no effect and 100 is complete control.
The mark [16] stands for this setting: 500 g ai/ha, 0 to 100 scale, 0 = no effect, 100 = complete control.

We go through 1 molecule from patent US12077503B2, “Substituted cyclic amides and their use as herbicides” (FMC CORPORATION, priority 2015, dated 2024).

In the assay with corn (Zea mays), `Cc1cc([C@H]2CNC(=O)[C@@H]2C(=O)Nc2ccc(F)cc2F)ccc1Br` [Compound 725] came in with a Corn plant response rating (crop injury, 0 = no effect, 100 = complete kill) at 125 g/ha of 0%. Moreover, the pest or weed control at 125 g/ha in assay [1] stood at 0%; in assay [2], 0%; in [3] it was 70%; in [5] it was 0%; in assay [6], 20%; with Kochia (Kochia scoparia) [7] it was 0%. Besides, the pest or weed control at 125 g/ha in assay [8] worked out at 0%; in assay [9] (setting [15]), 0%; in assay [10] (setting [15]), 90%; in assay [11] (setting [15]) it was 90%; in assay [12] (setting [15]), 0%; in the assay with Kochia (Kochia scoparia) [13] (setting [15]), 0%. The pest or weed control at 125 g/ha in assay [14] (setting [15]) was found to be 0%. Further, in assay [4], the plant injury at 125 g/ha was determined as 0%. For the same molecule, the pest or weed control at 500 g/ha in [9] (setting [16]) was 0%; in assay [10] (setting [16]) it was 90%; in assay [11] (setting [16]), 90%; in assay [12] (setting [16]), 20%; in the assay on Kochia (Kochia scoparia) [13] (setting [16]) it was 50%; in assay [14] (setting [16]) it was 0%.
